# Laboratory results reported in US4355026A, “4-Demethoxy,11-deoxy anthracycline derivatives” (priority 1980, dated 1982).
# Read-outs that look alike come from different tables or passages of the source.
# Legend:
# L1210 leukemia cells [1] = test: Inhibitory effect on growth of L1210 cultivated leukemic cells of mice; type: cell-based; details: Mus musculus
# Method: (§1) A. Inhibitory Effect on Growth, DNA Synthesis and RNA Synthesis of L1210 Cultivated Leukemic Cells of Mice
# For example, L1210 cells were inoculated in a concentration of 5×10^4 cells/ml in an RPMI 1640 culture medium (Roswell Park Memorial Institute 1640) containing 20% calf serum and, simultaneously, representative compounds of the present invention were added in a concentration of 0.1 and 0.5 μg/ml. The cells were cultivated in a CO2 generator at 37° C. The 50% growth inhibitory concentration with respect to a control group was then determined.
# [2] = test system: L1210 leukemia cells, DNA synthesis; test: Inhibition of DNA synthesis (14C-thymidine incorporation) of L1210 cultivated leukemic cells; type: cell-based; details: Mus musculus, L1210, 1 h; for IC50: read-out: IC50 DNA synthesis; for IC90: read-out: IC90 DNA synthesis
# Method: as §1
# (§2) Separately, the above L1210 cultivated cells were suspended in a concentration of 5×10^5 cells/ml in an RPMI 1640 medium containing 10% calf serum and cultivated for 1 to 2 hours in a CO2 incubator at 37° C. Then, representative test compounds were added in various concentrations, and 15 minutes later, ^14 C-uridine (0.05 μCi/ml) or ^14 C-thymidine (0.05 μCi/ml) were added. The cells were incubated at 37° C. for 60 minutes. A 10% aqueous trichloroacetic acid solution was added to the incubation medium to stop the reaction and simultaneously precipitate acid-insoluble matter. The acid-insoluble matter was washed three times with a 5 to 10% aqueous solution of trichloroacetic acid and then dissolved in formic acid. The radioactivity of the acid-insoluble matter was measured. From the ratio of incorporated radiation to that of a control group, the concentrations which inhibited radiation by 10%, 50% and 90% respectively were measured.
# [3] = test system: L1210 leukemia cells, RNA synthesis; test: Inhibition of RNA synthesis (14C-uridine incorporation) of L1210 cultivated leukemic cells; type: cell-based; details: Mus musculus, L1210, 1 h; for IC50: read-out: IC50 RNA synthesis; for IC90: read-out: IC90 RNA synthesis
# Method: as §1, §2
# L1210 leukemia cells [4] = test: Antitumor activity on CDFI mouse leukemia induced by mouse L1210 leukemia cells; type: in vivo, CDFI mice; set-up: key to Toxicity: *: Toxicity-; details: intraperitoneal, 10 consecutive days
# Method: B. Antitumor Activity on CDFI Mouse Leukemia Induced by Mouse L1210 Leukemia cells
# L1210 leukemia cells of mice were intraperitoneally transplanted in an amount of 1×10^5 cells/mouse in CDFI mice. Starting 24 hours after the transplantation, each of the test compounds was intraperitoneally administered to the mice for 10 consecutive days. the survival rate (T/C, %) was calculated in comparison with a control group (to which physiological saline was administered).
# [5] = test system: Bacillus cereus ATCC 10702; test: MIC on nutrient agar medium; type: cell-based; details: ATCC10702
# Description: (§3) The compounds of formula I provided by the present invention are also characterized by their antimicrobial activity. Table 3 summarizes the minimum inhibitory concentrations (MIC) of representative compounds of the present invention against various microorganisms on a nutrient agar medium.
# Bacillus megatherium APF = test: MIC on nutrient agar medium; type: cell-based
# Description: as §3
# [6] = test system: Bacillus subtilis NRRB- 558; test: MIC on nutrient agar medium; type: cell-based; details: NRRB558
# Description: as §3
# [7] = test system: Bacillus subtilis PCI 219; test: MIC on nutrient agar medium; type: cell-based; details: PCI219
# Description: as §3
# Candida albicans 3147 = test: MIC on nutrient agar medium; type: cell-based
# Description: as §3
# [8] = test system: Corynebacterium bovis 1810; test: MIC on nutrient agar medium; type: cell-based
# Description: as §3
# Escherichia coli NIHJ = test: MIC on nutrient agar medium; type: cell-based
# Description: as §3
# [9] = test system: Klebsiella pneumonia PCI 602; test: MIC on nutrient agar medium; type: cell-based; details: Klebsiella pneumoniae, PCI602
# Description: as §3
# Microccus flavus FDA 16 = test: MIC on nutrient agar medium; type: cell-based
# Description: as §3
# [10] = test system: Microccus lysodeikticus IFQ 3333; test: MIC on nutrient agar medium; type: cell-based
# Description: as §3
# [11] = test system: Mycobacterium smegmatis ATCC 607; test: MIC on nutrient agar medium; type: cell-based; details: Mycolicibacterium smegmatis, ATCC607
# Description: as §3
# [12] = test system: Pseudomonas aeruginosa A3; test: MIC on nutrient agar medium; type: cell-based
# Description: as §3
# Salmonella typhi T - 63 = test: MIC on nutrient agar medium; type: cell-based; details: Salmonella enterica
# Description: as §3
# Sarcina lutea PCI 1001 = test: MIC on nutrient agar medium; type: cell-based; details: Micrococcus luteus, PCI1001
# Description: as §3
# [13] = test system: Shigella flexneri 46 JS 11811; test: MIC on nutrient agar medium; type: cell-based; details: 46JS11811
# Description: as §3
# [14] = test system: Staphylococcus aureus FDA 209; test: MIC on nutrient agar medium; type: cell-based; details: FDA209
# Description: as §3
# [15] = test system: Staphylococcus aureus smith; test: MIC on nutrient agar medium; type: cell-based
# Description: as §3
# [16] = L1210, 24 h, 1 day later, RPMI 1640, 20% calf serum, 37° C., read-out: IC50 growth, 1 day later
# [17] = L1210, 24 h, read-out: IC50 growth, 1 day later
# [18] = L1210, 48 h, read-out: IC50 growth, 2 days later
# [19] = L1210, 48 h, 2 days later, RPMI 1640, 20% calf serum, 37° C., read-out: IC50 growth, 2 days later
# [20] = 14C-thymidine, 60 minutes, 37° C.
# [21] = 90% inhibition, 14C-thymidine, 60 minutes, 37° C.
# [22] = 14C-uridine, 60 minutes, 37° C.
# [23] = 90% inhibition, 14C-uridine, 60 minutes, 37° C.
smiles,measurement,setting,value
"COc1cccc2c1C(=O)c1c(cc3c(c1O)[C@@H](O[C@H]1C[C@H](N)[C@H](O)[C@H](C)O1)C[C@](O)(C(C)=O)C3)C2=O [11-deoxy-daunomycin, reference compound]",IC50,L1210 leukemia cells [1]; [16],0.05 µg/mL
"COc1cccc2c1C(=O)c1c(O)c3c(c(O)c1C2=O)C[C@@](O)(C(C)=O)C[C@@H]3O[C@H]1C[C@H](N)[C@H](O)[C@H](C)O1 [Daunomycin, reference compound]",IC50,L1210 leukemia cells [1]; [17],0.049 µg/mL
same,IC50,L1210 leukemia cells [1]; [18],0.036 µg/mL
same,IC50,[2],0.3 µg/mL
same,IC90,[2],1.8 µg/mL
same,IC50,[3],0.18 µg/mL
same,IC90,[3],1.8 µg/mL
same,"Survival rate (T/C, %)",L1210 leukemia cells [4]; 0.15 mg/kg/day,118%
same,"Survival rate (T/C, %)",L1210 leukemia cells [4]; 0.3 mg/kg/day,132%
same,"Survival rate (T/C, %)",L1210 leukemia cells [4]; 0.6 mg/kg/day,145%
same,"Survival rate (T/C, %)",L1210 leukemia cells [4]; 1.25 mg/kg/day,191%
same,"Survival rate (T/C, %)",L1210 leukemia cells [4]; 2.5 mg/kg/day,138%
same,"Survival, in words (dead through toxicity)",L1210 leukemia cells [4]; 5 mg/kg/day,dead
"C[C@@H]1O[C@@H](O[C@@H]2C[C@@](O)(C(=O)CO)Cc3cc4c(c(O)c32)C(=O)c2ccccc2C4=O)C[C@H](N)[C@@H]1O (single isomer, unassigned; isomer 4) [4-Demethoxy-11-deoxy-adriamycin (7R,9R,1'α)isomer, 4-Demethoxy-11-deoxyadriamycin]",IC50,L1210 leukemia cells [1]; [16],72.5 µg/mL
same,IC50,L1210 leukemia cells [1]; [19],72.5 µg/mL
same,IC50,[2]; [20],> 10 µg/mL
same,IC90,[2]; [21],> 10 µg/mL
same,IC50,[3]; [22],> 10 µg/mL
same,IC90,[3]; [23],> 10 µg/mL
same,MIC,[5],> 100 µg/mL
same,MIC,Bacillus megatherium APF,> 100 µg/mL
same,MIC,[6],> 100 µg/mL
same,MIC,[7],> 100 µg/mL
same,MIC,Candida albicans 3147,> 100 µg/mL
same,MIC,[8],> 100 µg/mL
same,MIC,Escherichia coli NIHJ,> 100 µg/mL
same,MIC,[9],> 100 µg/mL
same,MIC,Microccus flavus FDA 16,> 100 µg/mL
same,MIC,[10],> 100 µg/mL
same,MIC,[11],100 µg/mL
same,MIC,[12],> 100 µg/mL
same,MIC,Salmonella typhi T - 63,> 100 µg/mL
same,MIC,Sarcina lutea PCI 1001,> 100 µg/mL
same,MIC,[13],> 100 µg/mL
same,MIC,[14],> 100 µg/mL
same,MIC,[15],> 100 µg/mL
"CC(=O)[C@]1(O)Cc2cc3c(c(O)c2[C@@H](O[C@@H]2C[C@H](N)[C@H](O)[C@H](C)O2)C1)C(=O)c1ccccc1C3=O (single isomer, unassigned; isomer 4) [4-Demethoxy-11-deoxy-daunomycin (7S,9S,1'β)isomer, 4-Demethoxy-11-deoxydaunomycin]",IC50,L1210 leukemia cells [1]; [16],1.4 µg/mL
same,IC50,L1210 leukemia cells [1]; [19],0.51 µg/mL
same,IC50,[2]; [20],3.1 µg/mL
same,IC90,[2]; [21],15 µg/mL
same,IC50,[3]; [22],5.4 µg/mL
same,IC90,[3]; [23],14 µg/mL
"COc1cccc2c1C(=O)c1c(cc3c(c1O)[C@@H](O[C@H]1C[C@H](N)[C@H](O)[C@H](C)O1)C[C@](O)(C(=O)CO)C3)C2=O [11-Deoxy-adriamycin, reference compound]",IC50,L1210 leukemia cells [1]; [16],0.005 µg/mL
"CC(=O)[C@]1(O)Cc2c(O)c3c(c(O)c2[C@@H](O[C@H]2C[C@H](N)[C@H](O)[C@H](C)O2)C1)C(=O)c1ccccc1C3=O [4-Demethoxy-daunomycin, reference compound]",IC50,L1210 leukemia cells [1]; [16],0.01 µg/mL
same,IC50,L1210 leukemia cells [1]; [19],0.005 µg/mL
same,IC50,[2]; [20],0.08 µg/mL
same,IC90,[2]; [21],1.2 µg/mL
same,IC50,[3]; [22],0.14 µg/mL
same,IC90,[3]; [23],1.4 µg/mL
"C[C@@H]1O[C@@H](O[C@H]2C[C@](O)(C(=O)CO)Cc3c(O)c4c(c(O)c32)C(=O)c2ccccc2C4=O)C[C@H](N)[C@@H]1O [4-Demethoxy-adriamycin, reference compound]",IC50,L1210 leukemia cells [1]; [16],0.02 µg/mL
same,IC50,L1210 leukemia cells [1]; [19],0.006 µg/mL
same,IC50,[2]; [20],1.6 µg/mL
same,IC90,[2]; [21],10 µg/mL
same,IC50,[3]; [22],1.2 µg/mL
same,IC90,[3]; [23],6 µg/mL
COc1cccc2c1C(=O)c1c(O)c3c(c(O)c1C2=O)C[C@@](O)(C(=O)CO)C[C@@H]3O[C@H]1C[C@H](N)[C@H](O)[C@H](C)O1 [Adriamycin],IC50,L1210 leukemia cells [1]; [17],0.05 µg/mL
same,IC50,L1210 leukemia cells [1]; [18],0.03 µg/mL
same,IC50,[2],1.65 µg/mL
same,IC90,[2],4.5 µg/mL
same,IC50,[3],0.68 µg/mL
same,IC90,[3],6.5 µg/mL
same,"Survival rate (T/C, %)",L1210 leukemia cells [4]; 0.15 mg/kg/day,130%
same,"Survival rate (T/C, %)",L1210 leukemia cells [4]; 0.3 mg/kg/day,147%
same,"Survival rate (T/C, %)",L1210 leukemia cells [4]; 0.6 mg/kg/day,239%
same,"Survival rate (T/C, %)",L1210 leukemia cells [4]; 1.25 mg/kg/day,272%
same,"Survival rate (T/C, %)",L1210 leukemia cells [4]; 2.5 mg/kg/day,351%
same,"Survival rate (T/C, %)",L1210 leukemia cells [4]; 5 mg/kg/day,189%
same,Toxicity,L1210 leukemia cells [4]; 5 mg/kg/day,*
"CC(=O)[C@@]1(O)Cc2cc3c(c(O)c2[C@H](O[C@@H]2C[C@H](N)[C@H](O)[C@H](C)O2)C1)C(=O)c1ccccc1C3=O (single isomer, unassigned; isomer 4) [4-Demethoxy-11-deoxy-daunomycin (7R,9R,1'β )isomer, 4-Demethoxy-11-deoxydaunomycin]",IC50,L1210 leukemia cells [1]; [16],2 µg/mL
same,IC50,L1210 leukemia cells [1]; [19],1.25 µg/mL
same,IC50,[2]; [20],4.5 µg/mL
same,IC90,[2]; [21],15 µg/mL
same,IC50,[3]; [22],5 µg/mL
same,IC90,[3]; [23],13 µg/mL
